Publication PMC12453121, “The combined effects of tick defensin persulcatusin with conventional antibiotics and antimicrobial proteins/peptides against Staphylococcus aureus” (Microbiology, 2025)
Values joined by “and” are separate entries in the source; they are usually repeats but may differ in a detail not shown here. Equal entries are not always repeated. Where two headings read alike, the source gives them in different places. Where a SMILES comes first, the peptide text is derived from it. Bridges are numbered along the chain shown (N, C = ends). Where no end group is shown, it is not given here. [ ]: non-standard residue; d: D form. The star is where a group is joined. Ileψ(thiazoline)Cys = CC[C@H](C)[C@H](N)C1=N[C@H](C(=O)*)CS1; dOrn = NCCC[C@@H](N)C(=O)O

Tests used:
S. aureus ATCC 29213 [1] = details: for combined effect with IP (interpretation of FICI): named agent combined with IP, S. aureus ATCC 29213
Method: A checkerboard assay was performed to evaluate the combined effect of IP and conventional antibiotics using the broth microdilution method [3031] with a final inoculum concentration of 5×10^5 c.f.u. ml^−1. Bacterial cells cultured in MHB at 30 °C were suspended in MHB or cation-adjusted MHB (caMHB) for daptomycin treatment. Bacterial suspensions were dispensed into 96-well round polypropylene plates (Watson Bio Lab, Tokyo, Japan) at an inoculum concentration of 5.0×10^5 c.f.u. ml^−1. […] After incubation at 30 °C, the OD of each well was measured using a microplate reader (MTP-310; Corona Electric Co., Ltd., Ibaraki, Japan) at 660 nm (OD660). […] The fractional inhibitory concentration (FIC) was calculated as the MIC of drug A in combination with drug B divided by drug A alone. The FIC index (FICI) was calculated as the sum of each FIC, and the lowest FICI for each combination was interpreted as follows: FICI of <0.5 was defined as synergy, FICI of ≥0.5 but <1 was defined as partial synergy, FICI of ≥1 but <4 was defined as an additive effect or irrelevant and FICI of ≥4 was defined as antagonistic.

S. aureus ATCC 29213 [2] = assay: Killing kinetic assay of IP or vancomycin in growth and non-growth states; assay type: cell-based, Staphylococcus aureus; details: 30 °C; for survival rate in the non-growth state: 1×10^8 c.f.u./ml, within 0.5 h then constant, % of c.f.u./ml at 0 h, triplicate; for survival rate in the non-growth state / time after which bactericidal activity / reduction of survival rate appeared in growth cells: IP 32 µg/ml or vancomycin 16 µg/ml (8×MIC); for time after which bactericidal activity / reduction of survival rate appeared in growth cells: growth state (TSB, LB Lennox or MHB)
Method: To study the antimicrobial effect of IP on S. aureus cells in both the growth and non-growth states, a killing kinetic assay of IP against S. aureus incubated in nutrient medium was performed as per the method described below or in the physiological buffer (PBS). Bacterial cells grown in TSB for ~24 h were adjusted to 1×10^8 c.f.u. ml^−1 in TSB, LB Lennox broth, MHB or PBS with 32 µg ml^−1 IP or 16 µg ml^−1 vancomycin, as control for antibiotic inhibited cell wall biosynthesis via interaction with lipid II, followed by incubation at 30 ℃ for a further 0.5, 1, 2, 4, 6 and 8 h. Bacterial cells were then serially diluted with sterile PBS, plated on TSA and incubated overnight at 37 °C. Colony counts were then determined, and c.f.u. ml^−1 was calculated.

S. aureus [3] = tested on: S. aureus; parameters: method as in PMID 22705395; details: cited from earlier work
S. aureus ATCC 29213 [4] = assay: Killing kinetic assay of daptomycin with or without IP pretreatment; assay type: cell-based, Staphylococcus aureus; details: c.f.u. count, triplicate
Method: To examine the influence of S. aureus pretreated with IP on the efficacy of daptomycin against bacterial cells, a killing kinetic assay based on a modification of Grein’s method was conducted. Bacterial cells grown in MHB to the exponential growth phase were incubated with 16 µg ml^−1 IP (8×MIC) at 37 °C. Since IP interacts with the cell surface of S. aureus, causing depolarization within 15 min after incubation, the duration of the pretreatment with IP was set to […]. The cells were then centrifuged (5,000 g, 5 min, 25 °C), and the supernatant was discarded to remove IP. Pretreated cells were resuspended in caMHB with or without 10 µg ml^−1 daptomycin (10×MIC) and then incubated at 37 °C for 0, 15, 30, 60 and 120 min. The bacterial cells were then serially diluted with sterile PBS, and each dilution was plated on TSA plates. The colonies were left to incubate at 37 °C and were subsequently counted.

S. aureus [5] = details: IP on cell surface of S. aureus; cited from earlier work
[6] = named agent combined with IP (0.25–16 µg/ml), checkerboard broth microdilution in MHB (caMHB for daptomycin), 5×10^5 c.f.u./ml, 30 °C, no growth = OD660 <0.05, lowest FICI

| Molecule | combined effect with IP (interpretation of FICI) (S. aureus ATCC 29213 [1]; checkerboard) | FICI (fractional inhibitory concentration index) (S. aureus ATCC 29213 [1]; [6]) | other results |
| --- | --- | --- | --- |
| Nisin (ITSISLCTPGCKTGALMGCNMKTATCHCSIHVSK; also: lantibiotic: lanthionine rings and dehydro residues, not placed; UniProt P13068 24-57, looked up) | Partial synergistic |  | FICI (fractional inhibitory concentration index) (S. aureus ATCC 29213 [1]): 0.63; MIC in the presence of sublethal concentrations of IP compared with absence of IP (S. aureus ATCC 29213 [1]): higher |
| CC[C@H]1OC(=O)[C@H](C)[C@@H](O[C@H]2C[C@@](C)(OC)[C@@H](O)[C@H](C)O2)[C@H](C)[C@@H](O[C@@H]2O[C@H](C)C[C@H](N(C)C)[C@H]2O)[C@](C)(O)C[C@@H](C)C(=O)[C@H](C)[C@@H](O)[C@]1(C)O [erythromycin, Erythromycin] | additive or irrelevant | 2.0 |  |
| Gentamycin | additive or irrelevant | 1.0 |  |
| NC[C@H]1O[C@H](O[C@H]2[C@H](O)[C@@H](O[C@H]3O[C@H](CO)[C@@H](O)[C@H](N)[C@H]3O)[C@H](N)C[C@@H]2N)[C@H](O)[C@@H](O)[C@@H]1O [kanamycin, Kanamycin] | additive or irrelevant | 2.0 |  |
| Cc1nnc(SCC2=C(C(=O)O)N3C(=O)[C@@H](NC(=O)Cn4cnnn4)[C@H]3SC2)s1 [cefazolin, Cefazolin] | Partial synergistic | 0.75 |  |
| CN[C@H](CC(C)C)C(=O)N[C@H]1C(=O)N[C@@H](CC(N)=O)C(=O)N[C@H]2C(=O)N[C@H]3C(=O)N[C@H](C(=O)N[C@H](C(=O)O)c4cc(O)cc(O)c4-c4cc3ccc4O)[C@H](O)c3ccc(c(Cl)c3)Oc3cc2cc(c3O[C@@H]2O[C@H](CO)[C@@H](O)[C@H](O)[C@H]2O[C@H]2C[C@](C)(N)[C@H](O)[C@H](C)O2)Oc2ccc(cc2Cl)[C@H]1O [vancomycin, Vancomycin] | additive or irrelevant |  | survival rate in the non-growth state (S. aureus ATCC 29213 [2]; PBS): no reduction; time after which bactericidal activity / reduction of survival rate appeared in growth cells (S. aureus ATCC 29213 [2]): 8 h; FICI (fractional inhibitory concentration index) (S. aureus ATCC 29213 [1]): 2.0 |
| areucin-1: antimicrobial peptide isolated from the marine polychaete lugworm Arenicola marina (printed arenicin-1 in b7) (RWCVYAYVRVRGVLVRYRRCW; ends and bridges not checked; cysteine pairing not given here; UniProt Q5SC60 182-202, looked up) |  |  | FICI with chloramphenicol (S. aureus [3]; areucin-1 combined with chloramphenicol against S. aureus): 0.5; FICI with erythromycin (S. aureus [3]; areucin-1 combined with erythromycin against S. aureus): 0.375 |
| CCCCCCCCCC(=O)N[C@@H](Cc1c[nH]c2ccccc12)C(=O)N[C@H](CC(N)=O)C(=O)N[C@@H](CC(=O)O)C(=O)N[C@@H]1C(=O)NCC(=O)N[C@@H](CCCN)C(=O)N[C@@H](CC(=O)O)C(=O)N[C@H](C)C(=O)N[C@@H](CC(=O)O)C(=O)NCC(=O)N[C@H](CO)C(=O)N[C@@H]([C@H](C)CC(=O)O)C(=O)N[C@@H](CC(=O)c2ccccc2N)C(=O)O[C@@H]1C [daptomycin, Daptomycin] | additive, irrelevant or antagonistic |  | FICI (fractional inhibitory concentration index) (S. aureus ATCC 29213 [1]): exceeded 2.0; MIC in the presence of sublethal concentrations of IP compared with absence of IP (S. aureus ATCC 29213 [1]; IP 0.25 to 1 µg/ml for nisin, 0.25 to 4 µg/ml for daptomycin, checkerboard): higher; time to significant reduction in bacterial cells (bactericidal activity) (S. aureus ATCC 29213 [4]; daptomycin 10 µg/ml (10×MIC), caMHB, 37 °C, no pretreatment, P<0.05): ≤ 2 h |
| Lysostaphin | Partial synergistic | 0.75 |  |
| CC1(C)S[C@@H]2[C@H](NC(=O)[C@H](N)c3ccccc3)C(=O)N2[C@H]1C(=O)O [ampicillin, Ampicillin] | synergistic | 0.375 and 0.38 |  |
| O=C(N[C@H](CO)[C@H](O)c1ccc([N+](=O)[O-])cc1)C(Cl)Cl [chloramphenicol, Chloramphenicol] | additive or irrelevant | 2.0 |  |
| O=C(O)c1cn(C2CC2)c2cc(N3CCNCC3)c(F)cc2c1=O [ciprofloxacin, Ciprofloxacin] | Partial synergistic |  |  |
| CC[C@H](C)[C@H](N)C1=N[C@H](C(=O)N[C@@H](CC(C)C)C(=O)N[C@H](CCC(=O)O)C(=O)N[C@H](C(=O)N[C@H]2CCCCNC(=O)[C@H](CC(N)=O)NC(=O)[C@@H](CC(=O)O)NC(=O)[C@H](Cc3cnc[nH]3)NC(=O)[C@@H](Cc3ccccc3)NC(=O)[C@H]([C@@H](C)CC)NC(=O)[C@@H](CCCN)NC2=O)[C@@H](C)CC)CS1 [bacitracin, Bacitracin] ({Ileψ(thiazoline)Cys}-L[dE]IK[dOrn]I[dF]H[dD]N; lactam 4-C (inferred); N-terminus assumed) | Partial synergistic | 0.50 |  |
| CN(C)[C@@H]1C(O)=C(C(N)=O)C(=O)[C@@]2(O)C(O)=C3C(=O)c4c(O)cccc4[C@@](C)(O)[C@H]3C[C@@H]12 [tetracycline, Tetracycline] | Partial synergistic | 0.75 |  |
| Lysozyme | Partial synergistic |  |  |
| CC[C@H](C)[C@H](NC(=O)[C@H](CCCCN)NC(=O)[C@H](CCC(=O)O)NC(=O)[C@H](CCCCN)NC(=O)[C@H](CO)NC(=O)[C@H](CCCCN)NC(=O)[C@H](CCCNC(=N)N)NC(=O)[C@H](Cc1ccccc1)NC(=O)[C@H](Cc1ccccc1)NC(=O)[C@H](CC(=O)O)NC(=O)CNC(=O)[C@H](CC(C)C)NC(=O)[C@@H](N)CC(C)C)C(=O)NCC(=O)N[C@@H](CCCCN)C(=O)N[C@@H](CCC(=O)O)C(=O)N[C@@H](Cc1ccccc1)C(=O)N[C@@H](CCCCN)C(=O)N[C@@H](CCCNC(=N)N)C(=O)N[C@H](C(=O)N[C@H](C(=O)N[C@@H](CCC(N)=O)C(=O)N[C@@H](CCCNC(=N)N)C(=O)N[C@H](C(=O)N[C@@H](CCCCN)C(=O)N[C@@H](CC(=O)O)C(=O)N[C@@H](Cc1ccccc1)C(=O)N[C@@H](CC(C)C)C(=O)N[C@@H](CCCNC(=N)N)C(=O)N[C@@H](CC(N)=O)C(=O)N[C@@H](CC(C)C)C(=O)N[C@H](C(=O)N1CCC[C@H]1C(=O)N[C@@H](CCCNC(=N)N)C(=O)N[C@H](C(=O)N[C@@H](CCC(=O)O)C(=O)N[C@@H](CO)C(=O)O)[C@@H](C)O)C(C)C)[C@@H](C)CC)C(C)C)[C@@H](C)CC [LL-37] | synergistic | 0.25 |  |
| GFGCPFNQGACHRHCRSIGRRGGYCAGLFKQTCTCYSR (disulfide (positions not given here)) [IP, Persulcatusin, Tick defensin isolated from the hard tick Ixodes persulcatus, 38 aa, chemically synthesized, disulphide bridges formed] |  |  | survival rate in the non-growth state (S. aureus ATCC 29213 [2]; PBS): ~ 70%; time to bactericidal activity in PBS (non-growth state) (S. aureus ATCC 29213 [2]; PBS, IP 8×MIC, survival constant thereafter): ≤ 0.5 h; time after which bactericidal activity / reduction of survival rate appeared in growth cells (S. aureus ATCC 29213 [2]): 2 h; time to depolarization after incubation (S. aureus [5]): ≤ 15 min; effect of short-term IP pretreatment on killing by daptomycin (S. aureus ATCC 29213 [4]; IP 16 µg/ml (8×MIC) for 5 min at 37 °C, removed, then daptomycin 10 µg/ml in caMHB): reduced the bactericidal activity of daptomycin |
